These results are taken from US11726081B2, “Methods to identify modulators of tau protein structure” (REGENTS OF THE UNIVERSITY OF MINNESOTA, priority 2019, dated 2023).

In test [1] the target is purified recombinant full-length 2N4R wild-type (WT) tau protein (Homo sapiens, UniProt P10636). Description: Surface plasmon resonance (SPR) binding assay, WT tau. The following applies: for direct binding to immobilized tau protein: 1 nM to 5 μM.
Test [2] has as its target T1, tau intra-molecular FRET biosensor (GFP-tau-RFP) (Homo sapiens, UniProt P10636).
T1 construct: The FRET biosensors express full-length 2N4R wild-type (WT) tau; […]; expressed in transfected cells
The test can be described thus: Cellular tau intra-molecular FRET biosensor, dose-response. Type of test: cell-based. The note with it: GFP-tau-RFP stable HEK293 cells; read-out: EC50, reduction of intra-molecular FRET. The method, then:
To generate tau-GFP and tau-RFP, cDNA encoding full-length 2N4R tau (441 amino acids) was fused to the N-terminus of EGFP and TagRFP vectors. […] The GFP-tau-RFP was generated by fusing the N-terminal of tau to the C-terminus of GFP and the C-terminus of tau to the N-terminus of RFP. All constructs contain the monomeric mutation A206K to prevent constitutive fluorophore clustering.
HEK293 and SH-SY5Y cells (ATCC) were cultured in phenol red-free Dulbecco's Modified Eagle Medium (DMEM, Gibco) supplemented with 2 mM L-Glutamine (Invitrogen), heat-inactivated 10% fetal bovine serum (FBS HI, Gibco), 100 U/ml penicillin and 100 μg/ml streptomycin (Gibco). Cell cultures were maintained in an incubator with 5% CO2 (Forma Series II Water Jacket CO2 Incubator, Thermo Scientific) at 37° C. […] To generate stable cell lines expressing GFP-tau-RFP or tau-GFP only, HEK293 cells were transiently transfected using Lipofectamine 3000 with GFP-tau-RFP or tau-GFP DNA plasmids. Transiently transfected cells were treated with G418 (Enzo Life Sciences, Farmingdale, N.Y.) to eliminate non-expressing cells. Stable cell lines expressing GFP-tau-RFP or tau-GFP with the largest population of expressing cells were selected by fluorescence microscopy. The GFP-linker-RFP (linker contains 32 amino acids, GFP-32AA-RFP) control stable cell line was generated as described previously. […]

Another test concerns GFP-32AA-RFP. Description: GFP-32AA-RFP fluorophores-only FRET control. Type of test: cell-based, human. As to the method:
(§1) HEK293 and SH-SY5Y cells (ATCC) were cultured in phenol red-free Dulbecco's Modified Eagle Medium (DMEM, Gibco) supplemented with 2 mM L-Glutamine (Invitrogen), heat-inactivated 10% fetal bovine serum (FBS HI, Gibco), 100 U/ml penicillin and 100 μg/ml streptomycin (Gibco). Cell cultures were maintained in an incubator with 5% CO2 (Forma Series II Water Jacket CO2 Incubator, Thermo Scientific) at 37° C. […] To generate stable cell lines expressing GFP-tau-RFP or tau-GFP only, HEK293 cells were transiently transfected using Lipofectamine 3000 with GFP-tau-RFP or tau-GFP DNA plasmids. Transiently transfected cells were treated with G418 (Enzo Life Sciences, Farmingdale, N.Y.) to eliminate non-expressing cells. Stable cell lines expressing GFP-tau-RFP or tau-GFP with the largest population of expressing cells were selected by fluorescence microscopy. The GFP-linker-RFP (linker contains 32 amino acids, GFP-32AA-RFP) control stable cell line was generated as described previously. The control cells expressing only free soluble fluorophores (GFP or RFP only) were generated by transiently transfecting HEK293 cells using Lipofectamine 3000 with plasmids containing GFP or RFP DNAs at the same plasmid concentration as the inter-molecular tau FRET biosensor.
(§2) The compound was dissolved in DMSO to make a 10 mM stock solution, which was serially diluted in 96-well mother plates. […]

For a further test, the system named is soluble free GFP/RFP. Description: Soluble free GFP/RFP-only FRET control. Type of test: cell-based, human. As to the method: as §1, §2
The next test concerns WT 2N4R tau. The test can be described thus: Single-molecule FRET (smFRET) on labelled tau monomer. The note with it: 5 μM. Type of test: biochemical. An excerpt: For site-specific labeling with maleimide-reactive fluorophores, cysteine residues were introduced using QuikChange Site-Directed Mutagenesis (Stratagene). Naturally occurring cysteines were mutated to serines. Labelling positions were selected to roughly mark the boundaries of the N-terminal domain or the proline-rich and microtubule-binding region of tau. Tau protein was purified as described above and labeled immediately following purification following published protocols. Briefly, the protein (typically 200 μL of ˜100 μM protein) was incubated with 1 mM DTT for 30 minutes at room temperature followed by exchange into labeling buffer (20 mM Tris pH 7.4, 50 mM NaCl, and 6 M guanidine HCl) to remove DTT. […]
Single-molecule FRET measurements were carried out using ˜30 pM of labelled tau in phosphate buffer (40 mM potassium phosphate, 50 mM KCl, pH 7.4) in 8-chambered Nunc coverslips (ThermoFisher) passivated with poly(ethylene glycol) poly(L-lysine) (PEG-PLL) to reduce protein adsorption to the chambers. […] Fluorescence emission was collected through the objective and passed through a 150 μm diameter pinhole. Photons were separated by an HQ585LP dichroic in combination with ET525/50M and HQ600LP filters and detected by avalanche photodiodes. […] The FRET efficiency (ETeff) was calculated using SymphoTime 64 software. […]

The next test concerns the target purified WT tau proteins (Homo sapiens, UniProt P10636). The test can be described thus: Heparin induced thioflavin-T (ThT) aggregation assay. Type of test: biochemical. The method, then: Thioflavin-T (ThT, Sigma, product no. T3516) was dissolved in PBS buffer and was filtered through a 0.2 μm syringe filter to make a stock solution of 2.5 mM. ThT was then diluted to […] prior to addition to the tau proteins. The samples for ThT measurements were prepared by mixing 25 μl of 20 μM tau proteins with 25 μl of 20 μM of ThT, resulting in final concentrations of 10 μM tau proteins and 10 μM ThT. DTT (5 mM) and heparin (0.4 mg/ml) were then added to the samples; a control sample lacked addition of heparin. Lastly, the samples were treated with MK-886 (0.5 μM or 5 μM) and gossypetin (50 μM) with DMSO added to the no-compound controls. The ThT samples (50 μl each) were transferred to a black 96-well non-binding surface microplate with clear bottom (Corning product no. 3655) and incubated at 37° C. with mild shaking (200 rpm) in the Cytation 3 plate reader. The ThT fluorescence was measured by the Cytation 3 plate reader through the bottom of the plate with excitation filter of 440 nm and emission filter of 480 nm. Readings were acquired every 20 minutes for a total of 120 hours.

Test [3] has as its target tau preformed fibrils (PFF) (Homo sapiens, UniProt P10636). Description: ThT assay on tau preformed fibrils (PFF). Type of test: biochemical. The following applies: DTT 5 mM. As to the method:
HEK293 cells were transfected with tau-RFP (at equivalent DNA concentration as used in the tau FRET biosensor) for 48 hours prior to the addition of tau preformed fibrils (PFF). Tau-GFP was not used as it would interfere with the thioflavin-S(ThS) signal. To make the PFF, 100 μl of purified tau proteins (10 μM) with DTT (5 mM) and heparin (0.4 mg/ml) were first incubated for 120 hours at 37° C. and shook at 1000 rpm in a thermal shaker (Thermo Fisher Scientific). After incubation, the sample was subjected to ultracentrifugation at 80,000 rpm for 30 minutes. The pellet was collected and sonicated to break up the fibrils into smaller pieces. The concentration of the fibrils was then measured by BCA. […] Cells were then imaged with a fluorescence microscope using EVOS-FL cell imaging systems at 20× magnification. Mean fluorescence intensity for each image was quantified using ImageJ and values were normalized to untransfected controls.
Thioflavin-T (ThT, Sigma, product no. T3516) was dissolved in PBS buffer and was filtered through a 0.2 μm syringe filter to make a stock solution of 2.5 mM. […] The ThT samples (50 μl each) were transferred to a black 96-well non-binding surface microplate with clear bottom (Corning product no. 3655) and incubated at 37° C. with mild shaking (200 rpm) in the Cytation 3 plate reader. […] Readings were acquired every 20 minutes for a total of 120 hours.

In test [4] the target is T2, WT tau FRET biosensor (tau-GFP/RFP) (Homo sapiens, UniProt P10636). The test can be described thus: Pilot HTS of NCC library with tau FRET biosensor (fluorescence lifetime). The following applies: 10 μM, 2 hours.
Test [5] addresses T2, WT tau FRET biosensor (tau-GFP/RFP). Description: WT tau inter-molecular FRET biosensor in HEK293 cells (dose-response, functionality). Type of test: cell-based. Set-up: cDNA encoding full-length 2N4R tau (441 amino acids); […]; expressed in transfected cells; host or cells: HEK293, transient, tau-GFP:tau-RFP plasmids 1:20. As to the method:
as §1, §2

[6] abbreviates: control, 72 hours of incubation.

pEC50, pKd: −log10 of the molar value. Entries after “also recorded” stand apart in the source; their conditions may differ.

purified recombinant full-length 2N4R wild-type (WT) tau protein, sequence (P10636 1-441 isoform P10636-8): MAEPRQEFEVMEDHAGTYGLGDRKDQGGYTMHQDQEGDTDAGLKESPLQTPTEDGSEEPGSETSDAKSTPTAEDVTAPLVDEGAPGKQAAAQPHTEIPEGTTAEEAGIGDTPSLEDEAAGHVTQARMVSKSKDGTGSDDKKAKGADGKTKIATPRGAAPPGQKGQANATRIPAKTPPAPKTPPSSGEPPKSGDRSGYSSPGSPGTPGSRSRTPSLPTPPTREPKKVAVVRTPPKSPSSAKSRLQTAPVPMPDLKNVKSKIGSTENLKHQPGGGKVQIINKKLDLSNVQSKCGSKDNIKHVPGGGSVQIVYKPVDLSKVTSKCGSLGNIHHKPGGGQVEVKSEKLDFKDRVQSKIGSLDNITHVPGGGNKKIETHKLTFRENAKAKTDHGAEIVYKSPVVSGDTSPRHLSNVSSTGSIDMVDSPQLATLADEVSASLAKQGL
T2 sequence (P10636 1-441 isoform P10636-8): as above
T2 sequence (P10636 1-441 isoform P10636-8): as above
purified WT tau proteins, sequence (P10636 1-441 isoform P10636-8): as above
tau preformed fibrils (PFF), sequence (P10636 1-441 isoform P10636-8): as above
T1 sequence (P10636 1-441 isoform P10636-8): as above

For the molecule `CCc1oc2ccccc2c1C(=O)c1cc(Br)c(O)c(Br)c1` [Benzbromarone], the “direct binding to immobilized tau protein” value (from here on “direct binding”) in test [1] is listed as “no direct binding or interaction”.

On to `Oc1cc(Cl)ccc1Oc1ccc(Cl)cc1Cl` [Triclosan], for which the “direct binding” value in test [1] was “no direct binding or interaction”.

Turning to `CC(C)c1ccc2c(c1)c(SC(C)(C)C)c(CC(C)(C)C(=O)O)n2Cc1ccc(Cl)cc1` [MK-886], in test [1], the “direct binding” value is on record as “dose-dependent binding”. In addition, the pKd in test [1] (steady-state, immobilized tau, 25° C.) is 6.75. Besides, the pEC50 in test [2] is 5.67. In addition, the “FRET change in GFP-32AA-RFP control cells” value in the test with GFP-32AA-RFP is listed as “does not cause any significant FRET change”. Further, in the test on soluble free GFP/RFP, the “FRET change in soluble free GFP/RFP-only control cells” value was “does not cause any significant FRET change”. For the same molecule, in the test with WT 2N4R tau, the “smFRET change, N-terminal domain labelled construct” value is reported as “only a minor decrease in FRET; also recorded: only minor differences” and the “smFRET change, PRR/MTBR labelled construct” value is given as “substantial increase in FRET; also recorded: substantially more compact (increase in FRET)”. At purified WT tau proteins (setting [6]), the “direct effect on ThT fluorescence” value is “did not have a direct effect on ThT fluorescence; also recorded: do not interfere with ThT fluorescence” and the “nucleation of fibril formation without heparin” value is recorded as “unable to nucleate tau fibrillization; also recorded: did not act to nucleate for fibril formation; also recorded: does not act as a nucleation center”. The “lag phase of tau β-sheet fibril formation” value on purified WT tau proteins (heparin 0.4 mg/ml, MK-886 0.5 and 5 μM) is reported as “reduces the lag phase; also recorded: shortens the lag phase”. Besides, the “ThT signal from tau preformed fibrils (PFF)” value in test [3] is on record as “did not reduce the ThT signal”. In addition, the “size of FRET change among the hits” value in test [4] is “strongest change in FRET; also recorded: largest FRET change”. For the same molecule, the pEC50 in [5] (read-out: EC50, decrease of FRET efficiency, WT tau biosensor) was 5.85.

Turning to `O=c1c(O)c(-c2ccc(O)c(O)c2)oc2c(O)c(O)cc(O)c12` [gossypetin], on purified WT tau proteins (setting [6]), the “direct effect on ThT fluorescence” value is reported as “do not interfere with ThT fluorescence”. The “ThT signal from tau preformed fibrils (PFF)” value in test [3] is on record as “showed a significant decrease”. Further, in test [5] (functionality test), the “sensitivity of the FRET biosensor to the compound” value is on record as “not”.

As for `Cc1cccc(Nc2ccncc2S(=O)(=O)NC(=O)NC(C)C)c1` [Torsemide], in test [1], the “direct binding” value was “no direct binding or interaction”.

`CCCCNc1cc(C(=O)O)cc(S(N)(=O)=O)c1Oc1ccccc1` [Bumetanide]: the “direct binding” value in [1] was “no direct binding or interaction”.

A word on the pKd: it is the negative decadic logarithm of the Kd, by convention in mol/L. As usually defined, the pEC50 is −log10 of the EC50, conventionally taken in molar units.
